Experimental data from ChEMBL document CHEMBL4196183, “Discovery of New Allosteric Modulators of the Urotensinergic System through Substitution of the Urotensin II-Related Peptide (URP) Phenylalanine Residue” (J Med Chem, 2018).

Experiments:
Urotensin-2 receptor [1] = target: T1, Urotensin-2 receptor (Rattus norvegicus, UniProt P49684); test: Agonist activity at UT receptor in Sprague-Dawley rat thoracic aortic ring assessed as induction of contraction; assay type: functional
T1 sequence (P49684 whole entry): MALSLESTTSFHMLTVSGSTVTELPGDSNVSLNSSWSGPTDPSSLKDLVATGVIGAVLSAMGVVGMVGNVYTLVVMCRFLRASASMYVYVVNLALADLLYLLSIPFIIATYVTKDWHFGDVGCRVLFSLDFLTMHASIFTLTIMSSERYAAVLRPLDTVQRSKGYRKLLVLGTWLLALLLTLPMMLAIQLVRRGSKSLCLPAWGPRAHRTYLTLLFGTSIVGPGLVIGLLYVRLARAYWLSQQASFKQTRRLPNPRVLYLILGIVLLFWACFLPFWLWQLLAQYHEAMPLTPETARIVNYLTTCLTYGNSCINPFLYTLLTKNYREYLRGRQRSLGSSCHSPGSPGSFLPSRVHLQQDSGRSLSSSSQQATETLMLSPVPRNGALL

Urotensin-2 receptor [2] = target: T2, Urotensin-2 receptor (Homo sapiens, UniProt Q9UKP6); test: Displacement of [Na125I]-synthetic URP from human UT receptor expressed in HEK293 cell membranes incubated for 2 hrs by gamma-counting
T2 sequence (Q9UKP6 whole entry): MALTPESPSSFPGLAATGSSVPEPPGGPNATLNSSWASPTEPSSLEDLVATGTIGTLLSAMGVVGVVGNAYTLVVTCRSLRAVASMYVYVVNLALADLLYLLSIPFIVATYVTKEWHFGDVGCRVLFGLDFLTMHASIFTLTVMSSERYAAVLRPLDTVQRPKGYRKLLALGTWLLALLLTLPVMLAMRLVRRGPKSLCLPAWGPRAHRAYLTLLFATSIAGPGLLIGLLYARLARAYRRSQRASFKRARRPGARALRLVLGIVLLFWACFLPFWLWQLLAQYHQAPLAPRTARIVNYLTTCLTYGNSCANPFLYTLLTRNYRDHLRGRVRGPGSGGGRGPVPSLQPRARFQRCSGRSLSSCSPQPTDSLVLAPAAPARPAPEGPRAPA

Urotensin-2 receptor [3] = target: T2, Urotensin-2 receptor; test: Agonist activity at human UT receptor expressed in HEK293 cells co-expressing beta-arrestin1-polycistronic BRET biosensor assessed as induction of beta-arrestin1 recruitment measured for 5 mins by luminescence detection based BRET assay; assay type: functional, cell-based
Urotensin-2 receptor [4] = target: T2, Urotensin-2 receptor; test: Agonist activity at human UT receptor expressed in HEK293 cells co-expressing Gq-polycistronic BRET biosensor assessed as induction of Gq activation measured for 5 mins by luminescence detection based BRET assay; assay type: functional, cell-based
Urotensin-2 receptor [5] = target: T2, Urotensin-2 receptor; test: Agonist activity at human UT receptor expressed in HEK293 cells co-expressing G12-polycistronic BRET biosensor assessed as induction of G12 activation measured for 5 mins by luminescence detection based BRET assay; assay type: functional, cell-based
[6] = target: T3, Urotensin-2 receptor (Homo sapiens) (UniProt Q9UKP6); test: Bias factor, ratio of deltalog(Tau/KA) for agonist activity at human UT receptor expressed in HEK293 cells co-expressing Gq-polycistronic BRET biosensor assessed as induction of Gq activation by luminescence detection based BRET assay to deltalog(Tau/KA) for agonist activity at human UT receptor expressed in HEK293 cells co-expressing G12-polycistronic BRET biosensor assessed as induction of G12 activation by luminescence detection based BRET assay; assay type: functional, cell-based
T3 sequence (whole entry): T2 sequence (Q9UKP6 whole entry)

[7] = target: T3, Urotensin-2 receptor (Homo sapiens); test: Agonist activity at human UT receptor expressed in HEK293 cells co-expressing G12-polycistronic BRET biosensor assessed as induction of G12 activation measured for 5 mins by luminescence detection based BRET assay relative to 10 uM URP; assay type: functional, cell-based
[8] = target: T3, Urotensin-2 receptor (Homo sapiens); test: Selectivity index, change in deltalog(Tau/KA) for agonist activity at human UT receptor expressed in HEK293 cells co-expressing G12-polycistronic BRET biosensor assessed as induction of G12 activation by luminescence detection based BRET assay to deltalog(Tau/KA) for agonist activity at human UT receptor expressed in HEK293 cells co-expressing Gq-polycistronic BRET biosensor assessed as induction of Gq activation by luminescence detection based BRET assay; assay type: functional, cell-based
[9] = target: T3, Urotensin-2 receptor (Homo sapiens); test: Bias factor, ratio of deltalog(Tau/KA) for agonist activity at human UT receptor expressed in HEK293 cells co-expressing beta-arrestin1-polycistronic BRET biosensor assessed as induction of beta-arrestin1 recruitment by luminescence detection based BRET assay to deltalog(Tau/KA) for agonist activity at human UT receptor expressed in HEK293 cells co-expressing Gq-polycistronic BRET biosensor assessed as induction of Gq activation by luminescence detection based BRET assay; assay type: functional, cell-based
[10] = target: T3, Urotensin-2 receptor (Homo sapiens); test: Bias factor, ratio of deltalog(Tau/KA) for agonist activity at human UT receptor expressed in HEK293 cells co-expressing G12-polycistronic BRET biosensor assessed as induction of G12 activation by luminescence detection based BRET assay to deltalog(Tau/KA) for agonist activity at human UT receptor expressed in HEK293 cells co-expressing beta-arrestin1-polycistronic BRET biosensor assessed as induction of beta-arrestin1 recruitment by luminescence detection based BRET assay; assay type: functional, cell-based
[11] = target: T3, Urotensin-2 receptor (Homo sapiens); test: Selectivity index, change in deltalog(Tau/KA) for agonist activity at human UT receptor expressed in HEK293 cells co-expressing beta-arrestin1-polycistronic BRET biosensor assessed as induction of beta-arrestin1 recruitment by luminescence detection based BRET assay to deltalog(Tau/KA) for agonist activity at human UT receptor expressed in HEK293 cells co-expressing G12-polycistronic BRET biosensor assessed as induction of G12 activation by luminescence detection based BRET assay to; assay type: functional, cell-based
[12] = target: T3, Urotensin-2 receptor (Homo sapiens); test: Agonist activity at human UT receptor expressed in HEK293 cells co-expressing beta-arrestin1-polycistronic BRET biosensor assessed as induction of beta-arrestin1 recruitment measured for 5 mins by luminescence detection based BRET assay relative to 10 uM URP; assay type: functional, cell-based
[13] = target: T4, Urotensin-2 receptor (Rattus norvegicus) (UniProt P49684); test: Agonist activity at UT receptor in Sprague-Dawley rat thoracic aortic ring assessed as induction of contraction relative to KCl-induced contraction; assay type: functional
T4 sequence (whole entry): T1 sequence (P49684 whole entry)

[14] = target: T3, Urotensin-2 receptor (Homo sapiens); test: Bias factor, ratio of deltalog(Tau/KA) for agonist activity at human UT receptor expressed in HEK293 cells co-expressing Gq-polycistronic BRET biosensor assessed as induction of Gq activation by luminescence detection based BRET assay to deltalog(Tau/KA) for agonist activity at human UT receptor expressed in HEK293 cells co-expressing beta-arrestin1-polycistronic BRET biosensor assessed as induction of beta-arrestin1 recruitment by luminescence detection based BRET assay; assay type: functional, cell-based
[15] = target: T3, Urotensin-2 receptor (Homo sapiens); test: Bias factor, ratio of deltalog(Tau/KA) for agonist activity at human UT receptor expressed in HEK293 cells co-expressing G12-polycistronic BRET biosensor assessed as induction of G12 activation by luminescence detection based BRET assay to deltalog(Tau/KA) for agonist activity at human UT receptor expressed in HEK293 cells co-expressing Gq-polycistronic BRET biosensor assessed as induction of Gq activation by luminescence detection based BRET assay; assay type: functional, cell-based
[16] = target: T3, Urotensin-2 receptor (Homo sapiens); test: Agonist activity at human UT receptor expressed in HEK293 cells co-expressing Gq-polycistronic BRET biosensor assessed as induction of Gq activation measured for 5 mins by luminescence detection based BRET assay relative to 10 uM URP; assay type: functional, cell-based
[17] = target: T3, Urotensin-2 receptor (Homo sapiens); test: Selectivity index, change in deltalog(Tau/KA) for agonist activity at human UT receptor expressed in HEK293 cells co-expressing Gq-polycistronic BRET biosensor assessed as induction of Gq activation by luminescence detection based BRET assay to deltalog(Tau/KA) for agonist activity at human UT receptor expressed in HEK293 cells co-expressing beta-arrestin1-polycistronic BRET biosensor assessed as induction of beta-arrestin1 recruitment by luminescence detection based BRET assay; assay type: functional, cell-based
[18] = target: T3, Urotensin-2 receptor (Homo sapiens); test: Bias factor, ratio of deltalog(Tau/KA) for agonist activity at human UT receptor expressed in HEK293 cells co-expressing beta-arrestin1-polycistronic BRET biosensor assessed as induction of beta-arrestin1 recruitment by luminescence detection based BRET assay to deltalog(Tau/KA) for agonist activity at human UT receptor expressed in HEK293 cells co-expressing G12-polycistronic BRET biosensor assessed as induction of G12 activation by luminescence detection based BRET assay; assay type: functional, cell-based
[19] = target: T4, Urotensin-2 receptor (Rattus norvegicus); test: (§1) Antagonist activity at UT receptor in Sprague-Dawley rat thoracic aortic ring assessed as reduction in urotensin-2-induced contraction by measuring Emax for human urotensin-2-induced contraction at 1 uM pre-incubated for 30 mins before urotensin-2 stimulation relative to KCl-induced contraction (reference value: 101 +/- 4%); assay type: functional
[20] = target: T4, Urotensin-2 receptor (Rattus norvegicus); test: as §1, with “in URP-induced” for “in urotensin-2-induced”, “value: 107” for “value: 101”, “+/- 3%)” for “+/- 4%)”; assay type: functional

SMILES | EC50 (Urotensin-2 receptor [1]) | IC50 (Urotensin-2 receptor [2]) | EC50 (Urotensin-2 receptor [3]) | EC50 (Urotensin-2 receptor [4]) | EC50 (Urotensin-2 receptor [5]) | fold change (FC) [6] | Emax [7] | deltalog(Tau/KA) [8] | fold change (FC) [9] | fold change (FC) [10] | deltadeltalog(Tau/KA) (beta-arrestin1 selectivity index) [11] | Emax [12] | Emax [13] | fold change (FC) [14] | fold change (FC) [15] | Emax [16] | selectivity index, deltadeltalog(Tau/KA) [17] | fold change (FC) [18] | Emax [19] | Emax [20]
CC(C)[C@H](NC(=O)[C@@H]1CSSC[C@H](NC(=O)[C@H](C)N)C(=O)N[C@@H](Cc2ccc(I)cc2)C(=O)N[C@@H](Cc2c[nH]c3ccccc23)C(=O)N[C@@H](CCCCN)C(=O)N[C@@H](Cc2ccc(O)cc2)C(=O)N1)C(=O)O | 0.0316 µM | 0.00562 µM | 0.182 µM | 0.0107 µM | 0.0479 µM | 1.3 | 73% | -0.12 | 2.1 | 0.4 | 0.45 | 101% | 53% | 0.5 | 0.8 | 97% | -0.32 | 2.8 |  | 
CC(C)[C@H](NC(=O)[C@@H]1CSSC[C@H](NC(=O)[C@H](C)N)C(=O)N[C@H](Cc2ccc(I)cc2)C(=O)N[C@@H](Cc2c[nH]c3ccccc23)C(=O)N[C@@H](CCCCN)C(=O)N[C@@H](Cc2ccc(O)cc2)C(=O)N1)C(=O)O | 0.0138 µM | > 1 µM | 0.355 µM | 0.0537 µM | 0.0891 µM |  |  |  |  |  |  |  |  |  |  |  |  |  |  | 
CC(C)[C@H](NC(=O)[C@@H]1CSSC[C@H](NC(=O)[C@@H](C)N)C(=O)N[C@@H](Cc2ccc(C#Cc3ccccc3)cc2)C(=O)N[C@@H](Cc2c[nH]c3ccccc23)C(=O)N[C@@H](CCCCN)C(=O)N[C@@H](Cc2ccc(O)cc2)C(=O)N1)C(=O)O |  |  |  |  |  | 0.1 | 72% | 1.08 | 2.2 | 5.6 | -0.75 | 36% | 8% | 0.5 | 12.1 | 101% | -0.34 | 0.2 | 100% | 104%

More lines, now with the values ahead:

EC50 (Urotensin-2 receptor [1]) | IC50 (Urotensin-2 receptor [2]) | EC50 (Urotensin-2 receptor [3]) | EC50 (Urotensin-2 receptor [4]) | EC50 (Urotensin-2 receptor [5]) | fold change (FC) [6] | Emax [7] | deltalog(Tau/KA) [8] | fold change (FC) [9] | fold change (FC) [10] | deltadeltalog(Tau/KA) (beta-arrestin1 selectivity index) [11] | Emax [12] | Emax [13] | fold change (FC) [14] | fold change (FC) [15] | Emax [16] | selectivity index, deltadeltalog(Tau/KA) [17] | fold change (FC) [18] | Emax [19] | Emax [20] | SMILES
0.00135 µM | > 1 µM | 3.31 µM | 0.617 µM | 0.38 µM |  |  |  |  |  |  |  |  |  |  |  |  |  |  |  | CC(C)[C@H](NC(=O)[C@@H]1CSSC[C@H](NC(=O)[C@H](C)N)C(=O)N[C@H](Cc2ccc(C#Cc3ccccc3)cc2)C(=O)N[C@@H](Cc2c[nH]c3ccccc23)C(=O)N[C@@H](CCCCN)C(=O)N[C@@H](Cc2ccc(O)cc2)C(=O)N1)C(=O)O
0.0105 µM | 0.00398 µM | 0.191 µM | 0.00708 µM | 0.0363 µM | 0.6 | 94% | 0.22 | 1.2 | 1.3 | -0.13 | 104% | 112% | 0.8 | 1.7 | 100% | -0.1 | 0.8 |  |  | CC(C)[C@H](NC(=O)[C@@H]1CSSC[C@H](NC(=O)[C@@H](N)CC(=O)O)C(=O)N[C@@H](Cc2ccc(I)cc2)C(=O)N[C@@H](Cc2c[nH]c3ccccc23)C(=O)N[C@@H](CCCCN)C(=O)N[C@@H](Cc2ccc(O)cc2)C(=O)N1)C(=O)O
